Data: patent US20240294495A1, “COMPOUNDS THAT MEDIATE PROTEIN DEGRADATION AND METHODS OF USE THEREOF” (Monte Rosa Therapeutics, Inc., priority 2021, published 2024)

Assays:
[1] = molecular target: CRBN-DDB1 (Homo sapiens, UniProt Q96SW2); assay: Compound binding to CRBN by HTRF assay; conditions: CRBN-DDB1 2.5 nM, Cy5-Thalidomide 100 nM probe, 30 min incubation; read-out: HTRF Class (Cereblon binding, HTRF IC50)
Method: Compound activity was monitored in a Homogenous Time-Resolved Fluorescence (HTRF) assay using 1-[5-({2-[2-(2-{[2-(2,6-dioxopiperidin-3-yl)-1,3-dioxo-2,3-dihydro-1H-isoindol-4-yl]oxy}acetamido)ethoxy]ethyl}carbamoyl)pentyl]-3,3-dimethyl-2-[(1E,3E)-5-[(2E)-1,3,3-trimethyl-5-sulfo-2,3-dihydro-1H-indol-2-ylidene]penta-1,3-dien-1-yl]-3H-indol-1-ium-5-sulfonate as a fluorescent probe. Biochemical assays were conducted in Greiner white 384 well HiBase plates (Cat. No 784075-25) in 10 μL total volume. A one pot detection solution of CRBN-DDB1 (2.5 nM), Anti-His Terbium Cryptate Gold (1×, PerkinElmer Cat. #: 61HI2TLB), and Cy5-Thalidomide (100 nM, Tenova Cat.: T52461) was prepared in 20 mM HEPES, 20 mM NaCl, 0.2 mM TCEP, 0.2 mM EDTA, and 0.005% Tween20 was dispensed to each assay plate. Compounds were stored in dry, ambient temperatures at 10 mM. A 10-point, 1:3 dilution series was prepared from 10 mM stock concentrations in Echo-compatible LDV plates. 10 nL of each compound dilution series was dispensed into assays wells using an Echo 650 (Labcyte inc. USA). 10 nL of 10 mM Lenalidomide was transferred into the active-control wells for the assay and 10 nL of DMSO was transferred into the neutral-control wells. The assay was then allowed to incubate for 30 min at ambient temperature after transferring compound. Plate measurements were taken on a Pherastar FSX (BMG Labtech, Germany) using the HTRF Red filter (Ex. 337 nm, em1: 620 nm, em2: 665 nm) (Flashes: 50, Integration time: 60-400 us, Z-height: 10 mm, Ratio-multiplier: 10,000). The HTRF signal was then subsequently normalized to the neutral and active controls. Analysis and IC50 values were derived using KNIME analytics (KNIME Zurich) transformation and fitting within Collaborative Drug Discovery (Collaborative Drug Discovery USA). Ki was derived from the geometric mean of the IC50 values using the Cheng-Prustoff transformation.
(§1) In Table 2, each compound is assigned a class (HTRF class) indicating the ability for Cereblon binding by means of their HTRF IC50 values according to Example 3: A, B or C. According to the code, A represents an IC50 value of <100 nM, B represents an IC50 value>100 nM and <1000 nM, C represents an IC50 value>1000 nM. IF Class assigns each compound a code indicating the ability for GSPT1 degradation: A, B or C. According to the code, A represents a DC50 value of <30 nM, B represents a DC50 value>30 nM and <300 nM and C represents a DC50 value of >300 nM.

[2] = molecular target: T1, GSPT1 (Homo sapiens, UniProt P15170+Q96SW2); assay: Immunofluorescence assay for GSPT1 degradation in CAL-51 cells; assay type: cell-based; conditions: 6 h treatment, read-out: IF Class (GSPT1 degradation, DC50)
T1 construct: CAL-51 cells were purchased from DSMZ (cat. Number ACC302); endogenous in cells; host or cells: CAL-51 (DSMZ ACC302)
T1 sequence (P15170 whole entry): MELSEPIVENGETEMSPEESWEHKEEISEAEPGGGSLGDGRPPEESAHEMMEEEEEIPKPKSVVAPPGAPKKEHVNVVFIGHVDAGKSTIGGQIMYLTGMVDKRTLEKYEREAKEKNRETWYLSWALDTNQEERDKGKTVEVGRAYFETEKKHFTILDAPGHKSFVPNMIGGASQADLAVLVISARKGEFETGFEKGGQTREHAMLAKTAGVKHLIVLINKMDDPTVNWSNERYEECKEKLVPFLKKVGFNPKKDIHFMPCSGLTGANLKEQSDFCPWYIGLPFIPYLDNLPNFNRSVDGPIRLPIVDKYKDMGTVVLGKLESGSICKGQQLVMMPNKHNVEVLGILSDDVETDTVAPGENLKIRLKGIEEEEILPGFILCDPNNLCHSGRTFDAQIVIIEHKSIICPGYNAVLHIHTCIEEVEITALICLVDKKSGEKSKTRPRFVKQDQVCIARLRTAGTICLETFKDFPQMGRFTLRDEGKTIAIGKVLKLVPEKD
T1 sequence (Q96SW2 whole entry): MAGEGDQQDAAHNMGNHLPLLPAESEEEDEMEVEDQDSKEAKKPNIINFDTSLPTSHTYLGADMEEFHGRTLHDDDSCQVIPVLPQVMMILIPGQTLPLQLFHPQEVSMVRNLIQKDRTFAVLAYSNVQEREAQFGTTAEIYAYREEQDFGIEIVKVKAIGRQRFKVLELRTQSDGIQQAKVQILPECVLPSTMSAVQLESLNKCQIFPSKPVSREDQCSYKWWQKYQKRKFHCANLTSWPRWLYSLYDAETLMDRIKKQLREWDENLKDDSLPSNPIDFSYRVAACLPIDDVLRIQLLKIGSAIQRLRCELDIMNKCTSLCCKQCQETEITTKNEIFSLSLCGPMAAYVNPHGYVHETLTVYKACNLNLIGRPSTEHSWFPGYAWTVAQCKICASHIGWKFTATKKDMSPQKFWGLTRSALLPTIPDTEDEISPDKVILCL
T1 sequence (Q16531 2-1140 partner limits assumed): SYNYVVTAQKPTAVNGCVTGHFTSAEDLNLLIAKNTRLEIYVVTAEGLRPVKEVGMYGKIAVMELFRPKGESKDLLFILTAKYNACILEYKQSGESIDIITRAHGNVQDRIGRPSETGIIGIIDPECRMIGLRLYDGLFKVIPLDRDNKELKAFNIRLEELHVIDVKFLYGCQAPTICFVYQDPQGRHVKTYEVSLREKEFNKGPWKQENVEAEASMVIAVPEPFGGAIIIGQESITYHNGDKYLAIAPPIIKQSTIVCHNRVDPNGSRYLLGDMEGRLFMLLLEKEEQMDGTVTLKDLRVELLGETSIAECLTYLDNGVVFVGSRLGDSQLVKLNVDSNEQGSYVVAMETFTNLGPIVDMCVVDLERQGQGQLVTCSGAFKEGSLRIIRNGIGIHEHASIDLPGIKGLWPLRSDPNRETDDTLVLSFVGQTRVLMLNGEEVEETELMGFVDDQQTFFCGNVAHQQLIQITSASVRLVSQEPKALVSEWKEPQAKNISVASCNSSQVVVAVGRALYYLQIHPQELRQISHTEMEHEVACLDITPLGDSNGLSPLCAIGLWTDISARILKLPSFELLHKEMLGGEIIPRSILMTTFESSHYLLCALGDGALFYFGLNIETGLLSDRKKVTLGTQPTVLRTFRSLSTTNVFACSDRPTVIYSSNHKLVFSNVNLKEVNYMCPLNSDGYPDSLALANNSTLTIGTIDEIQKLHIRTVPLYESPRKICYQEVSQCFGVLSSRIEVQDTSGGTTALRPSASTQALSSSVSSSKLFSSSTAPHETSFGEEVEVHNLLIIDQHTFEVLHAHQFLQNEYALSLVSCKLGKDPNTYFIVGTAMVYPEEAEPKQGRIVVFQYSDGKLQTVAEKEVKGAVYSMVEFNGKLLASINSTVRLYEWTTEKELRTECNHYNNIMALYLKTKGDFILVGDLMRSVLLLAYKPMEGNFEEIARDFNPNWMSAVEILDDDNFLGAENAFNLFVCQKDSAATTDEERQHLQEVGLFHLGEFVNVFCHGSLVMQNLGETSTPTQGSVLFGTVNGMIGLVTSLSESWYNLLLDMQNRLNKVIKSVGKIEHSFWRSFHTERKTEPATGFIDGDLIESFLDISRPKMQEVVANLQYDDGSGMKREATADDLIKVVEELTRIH
Method: The representative compounds were tested in an immunofluorescence assay for their activity to degrade GSPT1. CAL-51 cells were purchased from DSMZ (cat. Number ACC302), sub-cultured in 90% Dulbecco's MEM (4.5 g/L glucose, Gibco 11965)+10% heat inactivated FBS (BioConcept, 2-01F136I) and incubated at 37° C., 5% CO2. For the assay imaging microtiter plate Cell Carrier 96 Ultra (Perkin Elmer 6055302) were pre-coated with Fibronectin (Sigma F085, 30 μl at 0.2 μg/mL) in PBS (100 μL, Gibco 14190) for 45 min at room temperature, rinsed with PBS and CAL-51 cells (30K cells/well) were plated and let to adhere overnight. Cells were treated with compounds typically using a serial dilution ranging from 30 μM to 0.1 nM for 6 h. Compounds were stored at 10 mM DMSO stocks. Vehicle (DMSO), positive (CC-885, 10 μM) and rescue controls (positive control plus 0.2 μM bortezomib) were also included at this stage. Cells were subsequently rinsed with PBS and fixed in 10% Formalin solution (50 μl, Sigma HT5011)) for 20 min at room temperature. Following three consecutive PBS washes (100 μL), cells were permeabilized in 0.1% Triton X-100 in PBS (Sigma 93443, 50 μl) for 15 min at room temperature. Following three further PBS washes, 50 μl blocking buffer (1% BSA, Sigma A4503, in PBS) was added for 45 min for signal-to noise reduction. Primary antibody (human GSPT1, Sigma HPA052488) was diluted in blocking buffer (dil.1/300, 35 μL/well) and incubated with the cells overnight at 4° C. After three PBS washes, Alexa-fluor 488 coupled secondary antibodies (Invitrogen, A32731, dil.1/1000), Alexa-fluor 647-Phalloidin (Invitrogen, A22287, dil.1/200) and DAPI (Thermo, #62248, dil.1/1000) were diluted in blocking buffer and incubated with the samples for 2 h at room temperature. After three final PBS washes, samples were conserved in 100 μL PBS in the dark, until measurement. Image acquisition was performed on the Operetta High-Content Imager (Perkin-Elmer). Fluorescence intensity of […] (GSPT1), Alexa-Fluor 647 (Actin) and DAPI (Nucleus) were measured. For the determination of GSPT1 DC50 values, a custom algorithm implemented in the PerkinElmer image analysis software Harmony-Acapella® was developed. After user-defined setting of adjustment parameters, the analysis was run identically without human intervention for all image fields. DAPI staining of the nuclei was used to determine the location of cells using standard nuclei detection modules. Segmentation artifacts were removed by threshold-based filters for area, roundness and intensity. The outline of the cells was determined analogously from the sum of the normalized, smoothed DAPI and Actin channel, starting from each nucleus. The Alexa-Fluor 488 (GSPT1) signal intensity in each cell was finally measured, in order to obtain a Mean intensity per cell. GSPT1 degradation (DC50) was calculated after normalization to controls and data import in CDD vault Database, using non-linear regression.
as §1

Chain of CRBN-DDB1 (Q96SW2 whole entry): as the sequence (Q96SW2 whole entry) above
Chain of CRBN-DDB1 (Q16531 whole entry partner): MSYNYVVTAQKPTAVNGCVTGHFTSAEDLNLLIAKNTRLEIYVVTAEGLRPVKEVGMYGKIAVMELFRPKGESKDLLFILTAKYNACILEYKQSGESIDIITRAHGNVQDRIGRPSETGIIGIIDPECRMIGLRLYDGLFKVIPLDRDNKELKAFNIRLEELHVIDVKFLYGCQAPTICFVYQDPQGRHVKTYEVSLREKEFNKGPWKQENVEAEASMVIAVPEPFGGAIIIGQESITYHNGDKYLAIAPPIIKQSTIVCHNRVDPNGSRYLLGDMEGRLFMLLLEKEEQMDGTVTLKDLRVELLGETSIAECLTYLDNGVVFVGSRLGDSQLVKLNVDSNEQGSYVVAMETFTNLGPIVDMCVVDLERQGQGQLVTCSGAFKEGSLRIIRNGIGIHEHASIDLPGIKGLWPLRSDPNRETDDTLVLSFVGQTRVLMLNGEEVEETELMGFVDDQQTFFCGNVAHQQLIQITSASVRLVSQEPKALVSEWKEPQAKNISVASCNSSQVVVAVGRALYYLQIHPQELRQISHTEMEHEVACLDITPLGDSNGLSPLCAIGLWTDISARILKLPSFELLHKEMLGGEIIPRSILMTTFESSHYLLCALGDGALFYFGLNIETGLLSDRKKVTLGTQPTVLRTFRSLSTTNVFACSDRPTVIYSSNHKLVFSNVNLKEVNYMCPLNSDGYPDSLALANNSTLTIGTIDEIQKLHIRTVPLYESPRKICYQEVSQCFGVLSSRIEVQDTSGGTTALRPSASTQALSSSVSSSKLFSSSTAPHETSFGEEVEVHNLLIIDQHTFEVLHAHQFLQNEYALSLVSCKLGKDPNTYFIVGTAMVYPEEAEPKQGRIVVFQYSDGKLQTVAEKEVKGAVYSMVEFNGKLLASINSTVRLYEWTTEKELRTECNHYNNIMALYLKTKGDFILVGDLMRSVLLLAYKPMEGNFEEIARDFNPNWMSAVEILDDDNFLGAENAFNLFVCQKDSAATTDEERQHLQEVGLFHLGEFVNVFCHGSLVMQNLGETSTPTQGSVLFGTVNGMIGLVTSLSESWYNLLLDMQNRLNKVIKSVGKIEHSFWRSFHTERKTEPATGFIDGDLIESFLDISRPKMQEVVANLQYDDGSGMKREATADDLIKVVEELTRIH

Row | IC50 [1] [nM] | DC50 [2] [nM] | Compound
1 | 100 to 1000 | > 300 | N#Cc1ccc(CC(=O)NC2CN(c3cc(F)c(C4CCC(=O)NC4=O)c(F)c3)C2)c(Cl)c1 (stereo not drawn) [Compound 1, 2-(2-chloro-4-cyanophenyl)-N-(1-(4-(2,6-dioxopiperidin-3-yl)-3,5-difluorophenyl)azetidin-3-yl)acetamide]
2 | 100 to 1000 | > 300 | O=C1CCC(c2c(F)cc(N3CC(NC(=O)CC4CCC4)C3)cc2F)C(=O)N1 (stereo not drawn) [Compound 2, 2-cyclobutyl-N-(1-(4-(2,6-dioxopiperidin-3-yl)-3,5-difluorophenyl)azetidin-3-yl)acetamide]
3 | 100 to 1000 | < 30 | Cc1cc(NC(=O)CC2CN(c3cc(F)c(C4CCC(=O)NC4=O)c(F)c3)C2)ccc1Cl (stereo not drawn) [Compound 3, N-(4-chloro-3-methylphenyl)-2-(1-(4-(2,6-dioxopiperidin-3-yl)-3,5-difluorophenyl)azetidin-3-yl)acetamide]
4 | 100 to 1000 | < 30 | O=C1CCC(c2c(F)cc(N3CC(NC(=O)Cc4cc(Cl)c(F)cc4F)C3)cc2F)C(=O)N1 (stereo not drawn) [Compound 4, 2-(5-chloro-2,4-difluorophenyl)-N-(1-(4-(2,6-dioxopiperidin-3-yl)-3,5-difluorophenyl)azetidin-3-yl)acetamide]
5 | 100 to 1000 | < 30 | Cc1cc(F)c(NC(=O)CC2CN(c3cc(F)c(C4CCC(=O)NC4=O)c(F)c3)C2)cc1Cl (stereo not drawn) [Compound 5, N-(5-chloro-2-fluoro-4-methylphenyl)-2-(1-(4-(2,6-dioxopiperidin-3-yl)-3,5-difluorophenyl)azetidin-3-yl)acetamide]
6 | 100 to 1000 | > 300 | Cc1cc(F)cc(CC(=O)NC2CN(c3cc(F)c(C4CCC(=O)NC4=O)c(F)c3)C2)c1 (stereo not drawn) [Compound 7, N-(1-(4-(2,6-dioxopiperidin-3-yl)-3,5-difluorophenyl)azetidin-3-yl)-2-(3-fluoro-5-methylphenyl)acetamide]
7 | 100 to 1000 | > 300 | O=C1CCC(c2c(F)cc(N3CC(NC(=O)Cc4cc(F)cc(F)c4)C3)cc2F)C(=O)N1 (stereo not drawn) [Compound 8, 2-(3,5-difluorophenyl)-N-(1-(4-(2,6-dioxopiperidin-3-yl)-3,5-difluorophenyl)azetidin-3-yl) acetamide]
8 | < 100 | > 300 | O=C1CCC(c2c(F)cc(N3CC(NC(=O)Cc4ccc(Cl)cn4)C3)cc2F)C(=O)N1 (stereo not drawn) [Compound 10, 2-(5-chloropyridin-2-yl)-N-(1-(4-(2,6-dioxopiperidin-3-yl)-3,5-difluorophenyl)azetidin-3-yl)acetamide]
9 | 100 to 1000 | < 30 | O=C1CCC(c2c(F)cc(N3CC(NC(=O)Cc4ccc(F)cc4F)C3)cc2F)C(=O)N1 (stereo not drawn) [Compound 11, 2-(2,4-difluorophenyl)-N-(1-(4-(2,6-dioxopiperidin-3-yl)-3,5-difluorophenyl)azetidin-3-yl)acetamide]
10 |  | 30 to 300 | N#Cc1cc(Cl)cc(CC(=O)NC2CN(c3cc(F)c(C4CCC(=O)NC4=O)c(F)c3)C2)c1 (stereo not drawn) [Compound 44, 2-(3-chloro-5-cyanophenyl)-N-(1-(4-(2,6-dioxopiperidin-3-yl)-3,5-difluorophenyl)azetidin-3-yl)acetamide]
11 | 100 to 1000 |  | O=C1CCC(c2c(F)cc(N3CC(NC(=O)c4cc(Cl)ccc4F)C3)cc2F)C(=O)N1 (stereo not drawn) [Compound 46, 5-chloro-N-(1-(4-(2,6-dioxopiperidin-3-yl)-3,5-difluorophenyl)azetidin-3-yl)-2-fluorobenzamide]

Second part, the molecule before the results:

Row | Compound | IC50 [1] [nM] | DC50 [2] [nM]
12 | O=C1CCC(c2c(F)cc(N3CC(CC(=O)Nc4ccc(F)c(OC(F)F)c4)C3)cc2F)C(=O)N1 (stereo not drawn) [Compound 6, N-(3-(difluoromethoxy)-4-fluorophenyl)-2-(1-(4-(2,6-dioxopiperidin-3-yl)-3,5-difluorophenyl)azetidin-3-yl)acetamide] | 100 to 1000 | 30 to 300
13 | O=C1CCC(c2c(F)cc(N3CC(CC(=O)Nc4cc(OC(F)(F)F)ccc4F)C3)cc2F)C(=O)N1 (stereo not drawn) [Compound 9, 2-(1-(4-(2,6-dioxopiperidin-3-yl)-3,5-difluorophenyl)azetidin-3-yl)-N-(2-fluoro-5-(trifluoromethoxy)phenyl)acetamide] | 100 to 1000 | < 30
14 | O=C1CCC(c2ccc(N3CC(NC(=O)Cc4ccc(Cl)cc4)C3)cc2Cl)C(=O)N1 (stereo not drawn) [Compound 34, N-(1-(3-chloro-4-(2,6-dioxopiperidin-3-yl)phenyl)azetidin-3-yl)-2-(4-chlorophenyl)acetamide] |  | > 300
15 | O=C1CCC(c2ccc(N3CC(NC(=O)C(F)(F)c4ccc(Cl)cc4)C3)cc2Cl)C(=O)N1 (stereo not drawn) [Compound 35, N-(1-(3-chloro-4-(2,6-dioxopiperidin-3-yl)phenyl)azetidin-3-yl)-2-(4-chlorophenyl)-2,2-difluoroacetamide] |  | > 300
16 | O=C1CCC(c2c(F)cc(N3CC(NC(=O)C(F)(F)c4ccc(Cl)cc4)C3)cc2F)C(=O)N1 (stereo not drawn) [Compound 37, 2-(4-chlorophenyl)-N-(1-(4-(2,6-dioxopiperidin-3-yl)-3,5-difluorophenyl)azetidin-3-yl)-2,2-difluoroacetamide] |  | > 300
17 | Cc1c(Cl)cc(NC(=O)CC2CN(c3cc(F)c(C4CCC(=O)NC4=O)c(F)c3)C2)cc1CN1CCOCC1 (stereo not drawn) [Compound 38, N-(3-chloro-4-methyl-5-(morpholinomethyl)phenyl)-2-(1-(4-(2,6-dioxopiperidin-3-yl)-3,5-difluorophenyl)azetidin-3-yl)acetamide] |  | < 30
18 | O=C1CCC(c2c(F)cc(N3CC(CC(=O)Nc4cccc(OC(F)(F)F)c4)C3)cc2F)C(=O)N1 (stereo not drawn) [Compound 39, 2-(1-(4-(2,6-dioxopiperidin-3-yl)-3,5-difluorophenyl)azetidin-3-yl)-N-(3-(trifluoromethoxy)phenyl)acetamide] |  | 30 to 300
19 | O=C1CCC(c2c(F)cc(N3CC(CC(=O)Nc4cc(F)cc(OC(F)F)c4)C3)cc2F)C(=O)N1 (stereo not drawn) [Compound 45, N-(3-(difluoromethoxy)-5-fluorophenyl)-2-(1-(4-(2,6-dioxopiperidin-3-yl)-3,5-difluorophenyl)azetidin-3-yl)acetamide] |  | > 300
